Results published in ChEMBL document CHEMBL4138187, “Novel 2-(2-arylmethylthio-4-chloro-5-methylbenzenesulfonyl)-1-(1,3,5-triazin-2-ylamino)guanidine derivatives: Inhibition of human carbonic anhydrase cytosolic isozymes I and II and the transmembrane tumor-associated isozymes IX and XII, anticancer activity, and molecular modeling studies” (Eur J Med Chem, 2018).
pIC50, pKi: −log10 of the molar value.

target: Carbonic anhydrase 1 (Homo sapiens, UniProt P00915); details: not given
Sequence (P00915 whole entry): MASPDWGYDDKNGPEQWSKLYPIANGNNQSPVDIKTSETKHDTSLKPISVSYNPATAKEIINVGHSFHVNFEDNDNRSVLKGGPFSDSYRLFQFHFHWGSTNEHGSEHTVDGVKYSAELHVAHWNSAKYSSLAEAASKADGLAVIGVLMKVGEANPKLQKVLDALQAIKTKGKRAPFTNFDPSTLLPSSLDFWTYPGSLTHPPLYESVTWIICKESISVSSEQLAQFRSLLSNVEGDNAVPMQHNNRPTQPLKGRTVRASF

Compound	pKi
N/C(=N\S(=O)(=O)c1ccccc1SCc1cccc(C(F)(F)F)c1)NNc1nc(Cl)nc(Nc2ccc(S(N)(=O)=O)cc2)n1	6.83
N/C(=N\S(=O)(=O)c1ccccc1SCc1ccc(C(F)(F)F)cc1)NNc1nc(Cl)nc(Nc2cccc(S(N)(=O)=O)c2)n1	6.27
N/C(=N\S(=O)(=O)c1ccccc1SCc1cccc(C(F)(F)F)c1)NNc1nc(Cl)nc(NCc2ccc(S(N)(=O)=O)cc2)n1	6.66
N/C(=N\S(=O)(=O)c1ccccc1SCc1cccc2ccccc12)NNc1nc(Cl)nc(NCc2ccc(S(N)(=O)=O)cc2)n1	5.67
N/C(=N\S(=O)(=O)c1ccccc1SCc1cccc2ccccc12)NNc1nc(Cl)nc(Nc2ccc(S(N)(=O)=O)cc2)n1	6.13
N/C(=N\S(=O)(=O)c1ccccc1SCc1ccccc1)NNc1nc(Cl)nc(Nc2ccc(S(N)(=O)=O)cc2)n1	7.18
N/C(=N\S(=O)(=O)c1ccccc1SCc1cccc(C(F)(F)F)c1)NNc1nc(Cl)nc(Nc2cccc(S(N)(=O)=O)c2)n1	6.47
N/C(=N\S(=O)(=O)c1ccccc1SCc1ccccc1)NNc1nc(Cl)nc(NCc2ccc(S(N)(=O)=O)cc2)n1	6.53
N/C(=N\S(=O)(=O)c1ccccc1SCc1cccc2ccccc12)NNc1nc(Cl)nc(Nc2cccc(S(N)(=O)=O)c2)n1	5.48
N/C(=N\S(=O)(=O)c1ccccc1SCc1ccc(C(F)(F)F)cc1)NNc1nc(Cl)nc(NCc2ccc(S(N)(=O)=O)cc2)n1	6.29
N/C(=N\S(=O)(=O)c1ccccc1SCc1ccc(C(F)(F)F)cc1)NNc1nc(Cl)nc(Nc2ccc(S(N)(=O)=O)cc2)n1	6.41
N/C(=N\S(=O)(=O)c1ccccc1SCc1ccccc1)NNc1nc(Cl)nc(Nc2cccc(S(N)(=O)=O)c2)n1	6.40

target: Carbonic anhydrase 2 (Homo sapiens, UniProt P00918); details: not given

Compound	pKi
N/C(=N\S(=O)(=O)c1ccccc1SCc1cccc(C(F)(F)F)c1)NNc1nc(Cl)nc(Nc2ccc(S(N)(=O)=O)cc2)n1	8.13
N/C(=N\S(=O)(=O)c1ccccc1SCc1ccc(C(F)(F)F)cc1)NNc1nc(Cl)nc(Nc2cccc(S(N)(=O)=O)c2)n1	6.49
N/C(=N\S(=O)(=O)c1ccccc1SCc1cccc(C(F)(F)F)c1)NNc1nc(Cl)nc(NCc2ccc(S(N)(=O)=O)cc2)n1	8.27
N/C(=N\S(=O)(=O)c1ccccc1SCc1cccc2ccccc12)NNc1nc(Cl)nc(NCc2ccc(S(N)(=O)=O)cc2)n1	6.73
N/C(=N\S(=O)(=O)c1ccccc1SCc1cccc2ccccc12)NNc1nc(Cl)nc(Nc2ccc(S(N)(=O)=O)cc2)n1	6.79
N/C(=N\S(=O)(=O)c1ccccc1SCc1ccccc1)NNc1nc(Cl)nc(Nc2ccc(S(N)(=O)=O)cc2)n1	7.08
N/C(=N\S(=O)(=O)c1ccccc1SCc1cccc(C(F)(F)F)c1)NNc1nc(Cl)nc(Nc2cccc(S(N)(=O)=O)c2)n1	8.03
N/C(=N\S(=O)(=O)c1ccccc1SCc1ccccc1)NNc1nc(Cl)nc(NCc2ccc(S(N)(=O)=O)cc2)n1	7.41
N/C(=N\S(=O)(=O)c1ccccc1SCc1cccc2ccccc12)NNc1nc(Cl)nc(Nc2cccc(S(N)(=O)=O)c2)n1	6.03
N/C(=N\S(=O)(=O)c1ccccc1SCc1ccc(C(F)(F)F)cc1)NNc1nc(Cl)nc(NCc2ccc(S(N)(=O)=O)cc2)n1	7.05
N/C(=N\S(=O)(=O)c1ccccc1SCc1ccc(C(F)(F)F)cc1)NNc1nc(Cl)nc(Nc2ccc(S(N)(=O)=O)cc2)n1	7.66
N/C(=N\S(=O)(=O)c1ccccc1SCc1ccccc1)NNc1nc(Cl)nc(Nc2cccc(S(N)(=O)=O)c2)n1	7.02

test system: HeLa; assay: Cytotoxicity against human HeLa cells after 72 hrs by MTT assay; format: functional, cell-based; details: not given

Compound	pIC50
N/C(=N\S(=O)(=O)c1ccccc1SCc1cccc(C(F)(F)F)c1)NNc1nc(Cl)nc(Nc2ccc(S(N)(=O)=O)cc2)n1	< 4.00
N/C(=N\S(=O)(=O)c1ccccc1SCc1ccc(C(F)(F)F)cc1)NNc1nc(Cl)nc(Nc2cccc(S(N)(=O)=O)c2)n1	< 4.00
N/C(=N\S(=O)(=O)c1ccccc1SCc1cccc(C(F)(F)F)c1)NNc1nc(Cl)nc(NCc2ccc(S(N)(=O)=O)cc2)n1	< 4.00
N/C(=N\S(=O)(=O)c1ccccc1SCc1cccc2ccccc12)NNc1nc(Cl)nc(NCc2ccc(S(N)(=O)=O)cc2)n1	< 4.00
N/C(=N\S(=O)(=O)c1ccccc1SCc1cccc2ccccc12)NNc1nc(Cl)nc(Nc2ccc(S(N)(=O)=O)cc2)n1	4.77
N/C(=N\S(=O)(=O)c1ccccc1SCc1ccccc1)NNc1nc(Cl)nc(Nc2ccc(S(N)(=O)=O)cc2)n1	< 4.00
N/C(=N\S(=O)(=O)c1ccccc1SCc1cccc(C(F)(F)F)c1)NNc1nc(Cl)nc(Nc2cccc(S(N)(=O)=O)c2)n1	< 4.00
N/C(=N\S(=O)(=O)c1ccccc1SCc1ccccc1)NNc1nc(Cl)nc(NCc2ccc(S(N)(=O)=O)cc2)n1	< 4.00
N/C(=N\S(=O)(=O)c1ccccc1SCc1cccc2ccccc12)NNc1nc(Cl)nc(Nc2cccc(S(N)(=O)=O)c2)n1	< 4.00
N/C(=N\S(=O)(=O)c1ccccc1SCc1ccc(C(F)(F)F)cc1)NNc1nc(Cl)nc(NCc2ccc(S(N)(=O)=O)cc2)n1	< 4.00
N/C(=N\S(=O)(=O)c1ccccc1SCc1ccc(C(F)(F)F)cc1)NNc1nc(Cl)nc(Nc2ccc(S(N)(=O)=O)cc2)n1	< 4.00
N/C(=N\S(=O)(=O)c1ccccc1SCc1ccccc1)NNc1nc(Cl)nc(Nc2cccc(S(N)(=O)=O)c2)n1	< 4.00

test system: MCF7; assay: Cytotoxicity against human MCF7 cells after 72 hrs by MTT assay; format: functional, cell-based; details: MCF7, 72 h

Compound	pIC50
N/C(=N\S(=O)(=O)c1ccccc1SCc1cccc(C(F)(F)F)c1)NNc1nc(Cl)nc(Nc2ccc(S(N)(=O)=O)cc2)n1	< 4.00
N/C(=N\S(=O)(=O)c1ccccc1SCc1ccc(C(F)(F)F)cc1)NNc1nc(Cl)nc(Nc2cccc(S(N)(=O)=O)c2)n1	< 4.00
N/C(=N\S(=O)(=O)c1ccccc1SCc1cccc(C(F)(F)F)c1)NNc1nc(Cl)nc(NCc2ccc(S(N)(=O)=O)cc2)n1	< 4.00
N/C(=N\S(=O)(=O)c1ccccc1SCc1cccc2ccccc12)NNc1nc(Cl)nc(NCc2ccc(S(N)(=O)=O)cc2)n1	< 4.00
N/C(=N\S(=O)(=O)c1ccccc1SCc1ccccc1)NNc1nc(Cl)nc(Nc2ccc(S(N)(=O)=O)cc2)n1	< 4.00
N/C(=N\S(=O)(=O)c1ccccc1SCc1cccc(C(F)(F)F)c1)NNc1nc(Cl)nc(Nc2cccc(S(N)(=O)=O)c2)n1	< 4.00
N/C(=N\S(=O)(=O)c1ccccc1SCc1ccccc1)NNc1nc(Cl)nc(NCc2ccc(S(N)(=O)=O)cc2)n1	< 4.00
N/C(=N\S(=O)(=O)c1ccccc1SCc1cccc2ccccc12)NNc1nc(Cl)nc(Nc2cccc(S(N)(=O)=O)c2)n1	< 4.00
N/C(=N\S(=O)(=O)c1ccccc1SCc1ccc(C(F)(F)F)cc1)NNc1nc(Cl)nc(NCc2ccc(S(N)(=O)=O)cc2)n1	< 4.00
N/C(=N\S(=O)(=O)c1ccccc1SCc1ccc(C(F)(F)F)cc1)NNc1nc(Cl)nc(Nc2ccc(S(N)(=O)=O)cc2)n1	< 4.00
N/C(=N\S(=O)(=O)c1ccccc1SCc1ccccc1)NNc1nc(Cl)nc(Nc2cccc(S(N)(=O)=O)c2)n1	< 4.00

test system: HCT-116; assay: Cytotoxicity against human HCT116 cells after 72 hrs by MTT assay; format: functional, cell-based; details: HCT-116, 72 h

Compound	pIC50
N/C(=N\S(=O)(=O)c1ccccc1SCc1cccc(C(F)(F)F)c1)NNc1nc(Cl)nc(Nc2ccc(S(N)(=O)=O)cc2)n1	< 4.00
N/C(=N\S(=O)(=O)c1ccccc1SCc1ccc(C(F)(F)F)cc1)NNc1nc(Cl)nc(Nc2cccc(S(N)(=O)=O)c2)n1	< 4.00
N/C(=N\S(=O)(=O)c1ccccc1SCc1cccc(C(F)(F)F)c1)NNc1nc(Cl)nc(NCc2ccc(S(N)(=O)=O)cc2)n1	< 4.00
N/C(=N\S(=O)(=O)c1ccccc1SCc1cccc2ccccc12)NNc1nc(Cl)nc(NCc2ccc(S(N)(=O)=O)cc2)n1	< 4.00
N/C(=N\S(=O)(=O)c1ccccc1SCc1ccccc1)NNc1nc(Cl)nc(Nc2ccc(S(N)(=O)=O)cc2)n1	< 4.00
N/C(=N\S(=O)(=O)c1ccccc1SCc1cccc(C(F)(F)F)c1)NNc1nc(Cl)nc(Nc2cccc(S(N)(=O)=O)c2)n1	< 4.00
N/C(=N\S(=O)(=O)c1ccccc1SCc1ccccc1)NNc1nc(Cl)nc(NCc2ccc(S(N)(=O)=O)cc2)n1	< 4.00
N/C(=N\S(=O)(=O)c1ccccc1SCc1cccc2ccccc12)NNc1nc(Cl)nc(Nc2cccc(S(N)(=O)=O)c2)n1	< 4.00
N/C(=N\S(=O)(=O)c1ccccc1SCc1ccc(C(F)(F)F)cc1)NNc1nc(Cl)nc(NCc2ccc(S(N)(=O)=O)cc2)n1	< 4.00
N/C(=N\S(=O)(=O)c1ccccc1SCc1ccc(C(F)(F)F)cc1)NNc1nc(Cl)nc(Nc2ccc(S(N)(=O)=O)cc2)n1	< 4.00
N/C(=N\S(=O)(=O)c1ccccc1SCc1ccccc1)NNc1nc(Cl)nc(Nc2cccc(S(N)(=O)=O)c2)n1	< 4.00

test system: HaCaT; assay: Cytotoxicity against human HaCaT cells after 72 hrs by MTT assay; format: cell-based; details: not given

Compound	pIC50
N/C(=N\S(=O)(=O)c1ccccc1SCc1cccc2ccccc12)NNc1nc(Cl)nc(Nc2ccc(S(N)(=O)=O)cc2)n1	4.21

target: Carbonic anhydrase 9 (Homo sapiens, UniProt Q16790); details: not given

Compound	pKi
N/C(=N\S(=O)(=O)c1ccccc1SCc1cccc(C(F)(F)F)c1)NNc1nc(Cl)nc(Nc2ccc(S(N)(=O)=O)cc2)n1	7.43
N/C(=N\S(=O)(=O)c1ccccc1SCc1ccc(C(F)(F)F)cc1)NNc1nc(Cl)nc(Nc2cccc(S(N)(=O)=O)c2)n1	6.38
N/C(=N\S(=O)(=O)c1ccccc1SCc1cccc(C(F)(F)F)c1)NNc1nc(Cl)nc(NCc2ccc(S(N)(=O)=O)cc2)n1	7.36
N/C(=N\S(=O)(=O)c1ccccc1SCc1cccc2ccccc12)NNc1nc(Cl)nc(NCc2ccc(S(N)(=O)=O)cc2)n1	6.42
N/C(=N\S(=O)(=O)c1ccccc1SCc1cccc2ccccc12)NNc1nc(Cl)nc(Nc2ccc(S(N)(=O)=O)cc2)n1	7.39
N/C(=N\S(=O)(=O)c1ccccc1SCc1ccccc1)NNc1nc(Cl)nc(Nc2ccc(S(N)(=O)=O)cc2)n1	7.40
N/C(=N\S(=O)(=O)c1ccccc1SCc1cccc(C(F)(F)F)c1)NNc1nc(Cl)nc(Nc2cccc(S(N)(=O)=O)c2)n1	5.48
N/C(=N\S(=O)(=O)c1ccccc1SCc1ccccc1)NNc1nc(Cl)nc(NCc2ccc(S(N)(=O)=O)cc2)n1	7.33
N/C(=N\S(=O)(=O)c1ccccc1SCc1cccc2ccccc12)NNc1nc(Cl)nc(Nc2cccc(S(N)(=O)=O)c2)n1	5.47
N/C(=N\S(=O)(=O)c1ccccc1SCc1ccc(C(F)(F)F)cc1)NNc1nc(Cl)nc(NCc2ccc(S(N)(=O)=O)cc2)n1	7.33
N/C(=N\S(=O)(=O)c1ccccc1SCc1ccc(C(F)(F)F)cc1)NNc1nc(Cl)nc(Nc2ccc(S(N)(=O)=O)cc2)n1	7.37
N/C(=N\S(=O)(=O)c1ccccc1SCc1ccccc1)NNc1nc(Cl)nc(Nc2cccc(S(N)(=O)=O)c2)n1	5.40
